Reference: patent publication US11317629B2, “Liquid composition comprising mefentrifluconazole” (SUMITOMO CHEMICAL COMPANY, LIMITED, priority 2019, dated 2022)

Experiments:
corn (variety: Pioneer) [1] = test: Phytotoxicity Test Example 1: compositions dripped into the whorl of corn plants, plant length; type: in vivo; conditions: 10,000 ppm
Method: Liquid compositions comprising 10,000 ppm of mefentrifluconazole, 1.25 or 10% by volume of an oil adjuvant and water (hereinafter referred to as Present Composition 7 and Present Composition 8) were prepared by diluting mefentrifluconazole SC and an oil adjuvant (COC: Agri-Dex, containing 82% of heavy range paraffinic oil, 17% of surfactant, and 1% of other components, manufactured by Helena), respectively, with water and mixing them. Similarly to the Present Composition 7 and 8, liquid compositions (hereinafter referred to as Present Composition 9 and Present Composition 10) were prepared by replacing Agri-Dex with Sundance II (MSO, containing 90% of methylated seed oil and 10% of alkyl and aryl alkoxylates and phosphate esters). […]
A soil was filled into a plastic pot, and corn (variety: Pioneer) was seeded therein, and grown in a greenhouse for 4 days. […] After dripping, the plants were placed in the greenhouse for 8 days, then the plant lengths were measured. […]
From the plant lengths in each of the treated plants and the non-treated plants, the relative length of the compositions was determined according to the following “Formula 2”. […]

corn (variety: Pioneer) [2] = test: Phytotoxicity Test Example 2: compositions sprayed onto corn plants, plant length; type: in vivo; conditions: 2,000 ppm
Method: A liquid composition comprising 2,000 ppm of mefentrifluconazole, 10% by volume of an oil adjuvant and water (hereinafter referred to as Present Composition 13) were prepared by diluting mefentrifluconazole SC and an oil adjuvant (COC: Agri-Dex, containing 82% of heavy range paraffinic oil, 17% of surfactant, and 1% of other components, manufactured by Helena) with water and mixing them. Similarly to the Present Composition 13, a liquid compositions (hereinafter referred to as Present Composition 14) were prepared by replacing Agri-Dex with Sundance II (MSO, containing 90% of methylated seed oil and 10% of alkyl and aryl alkoxylates and phosphate esters). Similarly to the Present Composition 13, a liquid composition (hereinafter referred to as Present Composition 15) were prepared by replacing Agri-Dex with Destiny (HSOC, containing 50% of methylated seed oil, 42% of sorbitan fatty acid esters and high fructose corn syrup, and 8% of other ingredients). […]
A soil was filled into a plastic pot, and corn (variety: Pioneer) was seeded therein, and grown in a greenhouse for 4 days. […] After spraying, the plants were placed in the greenhouse for 8 days, then the plant lengths were measured. […]
From the plant lengths in each of the treated plants and the non-treated plants, the relative length of the compositions was determined according to the above “Formula 2”.

In the case of `N#CC(CCc1ccc(Cl)cc1)(Cn1cncn1)c1ccccc1` (stereo not shown) [fenbuconazole], the “Effect of addition of oil adjuvants on retardation of corn plant” value (corn (variety: Pioneer) [1]; oil adjuvants 1.25 or 10% by volume) is reported as “severely enhanced the retardation”, the “Retardation of corn plant without adjuvant” value (corn (variety: Pioneer) [1]; without adjuvant) is reported as “retarded corn plant slightly” and the “Effect of addition of oil adjuvants on corn plant length” value (corn (variety: Pioneer) [2]; oil adjuvants 10% by volume) is reported as “enhanced the retardation”. For the same molecule, the “Effect on plant length without adjuvant” value (corn (variety: Pioneer) [2]; without adjuvant) was “did not effect on plant length”.
